pIC50, pKd: −log10 of the molar value. Like-named read-outs stand apart in the source and are kept apart here.
Assays:
[1] = system: EGFR, Yes, ErbB2, and JAK3; details: cited from earlier work
[2] = system: Bmx, CSK, FGR, BRK, and HCK; details: cited from earlier work
[3] = biological target: T1, bone marrow tyrosine kinase on chromosome X (BMX) (Homo sapiens, UniProt P51813); details: targets Cys496 in the BMX ATP binding domain; cited from earlier work
T1 sequence (P51813 1-675): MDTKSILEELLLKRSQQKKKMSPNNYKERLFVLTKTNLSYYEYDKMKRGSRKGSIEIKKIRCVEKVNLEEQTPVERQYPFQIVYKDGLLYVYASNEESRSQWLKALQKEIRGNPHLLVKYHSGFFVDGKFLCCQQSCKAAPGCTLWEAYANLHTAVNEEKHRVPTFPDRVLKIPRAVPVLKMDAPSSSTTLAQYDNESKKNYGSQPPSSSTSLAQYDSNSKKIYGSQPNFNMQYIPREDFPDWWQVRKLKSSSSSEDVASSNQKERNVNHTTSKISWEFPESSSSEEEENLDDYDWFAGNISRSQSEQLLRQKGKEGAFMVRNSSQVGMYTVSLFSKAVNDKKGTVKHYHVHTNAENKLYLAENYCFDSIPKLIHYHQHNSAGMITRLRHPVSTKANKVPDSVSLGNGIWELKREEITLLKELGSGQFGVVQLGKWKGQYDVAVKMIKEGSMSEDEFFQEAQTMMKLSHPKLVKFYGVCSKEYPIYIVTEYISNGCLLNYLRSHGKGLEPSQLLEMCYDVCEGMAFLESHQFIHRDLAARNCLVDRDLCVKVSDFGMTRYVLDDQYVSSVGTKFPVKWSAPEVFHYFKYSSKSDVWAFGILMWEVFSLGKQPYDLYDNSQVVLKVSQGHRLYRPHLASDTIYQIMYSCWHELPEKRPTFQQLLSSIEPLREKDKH

[4] = system: signals downstream of BCR in HBL-1, TMD-8, and SU-DHL-6 cells; assay: Western blot of downstream BCR signalling; type: cell-based
HBL-1 cells [5] = assay: Transwell invasion assay (Matrigel); type: cell-based; details: HBL-1, 2 micromolar enzastaurin and/or 0.02 micromolar ibrutinib
HBL-1 cells [6] = assay: Apoptosis assay, annexin V flow cytometry; type: cell-based; details: HBL-1, 48 h
HBL-1 cells [7] = assay: Transwell migration assay; type: cell-based; details: HBL-1, 2 micromolar enzastaurin and/or 0.02 micromolar ibrutinib
[8] = system: ABC-DLBCL HBL-1 cells engrafted in NPG mice; assay: HBL-1 lymphoma xenograft model; type: in vivo; details: for tumour weight: end of the experiment (day 39), vehicle 1321.50±168.84 mg; for reduction of tumor volume: enzastaurin 50 mg/kg BID oral, ibrutinib 12 mg/kg QD oral, 21 days
relapsed DLBCL patients = details: cited from earlier work
[9] = biological target: T2, interleukin-2-inducible T-cell kinase (ITK) (Homo sapiens, UniProt Q08881); details: cited from earlier work
T2 sequence (Q08881 1-620): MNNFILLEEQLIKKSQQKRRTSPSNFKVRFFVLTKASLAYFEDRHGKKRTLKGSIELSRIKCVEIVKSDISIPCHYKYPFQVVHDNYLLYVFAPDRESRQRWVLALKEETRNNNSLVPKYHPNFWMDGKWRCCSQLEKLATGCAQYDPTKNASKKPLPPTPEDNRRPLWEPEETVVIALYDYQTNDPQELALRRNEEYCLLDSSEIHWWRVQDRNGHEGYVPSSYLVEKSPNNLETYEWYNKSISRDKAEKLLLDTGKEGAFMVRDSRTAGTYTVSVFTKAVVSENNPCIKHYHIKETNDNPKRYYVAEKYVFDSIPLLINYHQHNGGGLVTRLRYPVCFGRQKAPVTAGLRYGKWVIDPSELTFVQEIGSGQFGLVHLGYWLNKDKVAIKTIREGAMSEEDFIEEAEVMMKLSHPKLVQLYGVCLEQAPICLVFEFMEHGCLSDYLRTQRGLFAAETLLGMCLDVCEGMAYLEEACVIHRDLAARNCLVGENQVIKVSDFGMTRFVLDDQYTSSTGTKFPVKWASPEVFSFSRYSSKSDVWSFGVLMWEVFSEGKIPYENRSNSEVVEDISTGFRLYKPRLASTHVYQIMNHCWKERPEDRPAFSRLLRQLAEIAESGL

BTK [10] = biological target: BTK (Homo sapiens, UniProt Q06187); details: cited from earlier work
BTK (Homo sapiens, UniProt Q06187), sequence (Q06187 whole entry, species assumed): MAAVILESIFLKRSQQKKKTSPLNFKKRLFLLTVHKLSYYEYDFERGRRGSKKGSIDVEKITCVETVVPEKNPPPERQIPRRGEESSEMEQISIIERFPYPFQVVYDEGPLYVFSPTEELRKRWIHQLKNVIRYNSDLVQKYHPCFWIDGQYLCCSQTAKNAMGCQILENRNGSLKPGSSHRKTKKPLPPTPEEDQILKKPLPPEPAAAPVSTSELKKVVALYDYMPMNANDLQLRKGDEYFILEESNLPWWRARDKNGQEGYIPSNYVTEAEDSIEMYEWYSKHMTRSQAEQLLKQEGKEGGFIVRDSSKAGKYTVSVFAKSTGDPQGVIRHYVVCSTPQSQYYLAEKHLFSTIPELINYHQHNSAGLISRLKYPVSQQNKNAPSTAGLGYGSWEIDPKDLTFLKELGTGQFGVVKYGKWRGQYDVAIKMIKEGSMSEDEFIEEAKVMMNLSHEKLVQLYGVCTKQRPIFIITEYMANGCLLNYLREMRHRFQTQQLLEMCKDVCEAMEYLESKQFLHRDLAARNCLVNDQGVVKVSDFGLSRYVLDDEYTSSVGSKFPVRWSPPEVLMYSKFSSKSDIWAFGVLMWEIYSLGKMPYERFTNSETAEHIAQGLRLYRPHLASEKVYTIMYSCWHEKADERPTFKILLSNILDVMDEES

DLBCL patients [11] = details: DLBCL trials of enzastaurin; cited from earlier work
[12] = system: p-BTK in HBL-1 and TMD8 cells; assay: Western blot of p-BTK after enzastaurin; type: cell-based; details: 2 hours treatment
DLBCL patients [13] = details: Phase I/II studies, cited from earlier work
[14] = system: ABC and GCB types of DLBCL cell lines; assay: Cell Titer-Glo cell viability, enzastaurin alone, 9 DLBCL cell lines; type: cell-based; details: 72 h; read-out: 50% inhibitory concentration (IC50) of cell proliferation
[15] = system: PARP, XIAP, MCL-1, caspase-3, Bcl-2 in HBL-1 cells; assay: Western blot of proteins associated with apoptosis; type: cell-based; details: HBL-1, 48 hours
SU-DHL-6 = assay: Cell proliferation assay (Cell Titer AQueous One Solution), Example 2; type: cell-based; details: Homo sapiens; SU-DHL-6, 72 h, 0.014 μM-10 μM
SU-DHL-5 = assay: as above; type: cell-based; details: Homo sapiens; SU-DHL-5, 72 h, 0.014 μM-10 μM
HBL-1 cells [16] = assay: Whole-transcriptome RNA-seq; type: cell-based; details: HBL-1, 24 hours
high-risk DLBCL patients = details: enzastaurin alone, after remission of B cell lymphoma; cited from earlier work
PLK3 = PLK3 (Homo sapiens, UniProt Q9H4B4); details: cited from earlier work
PLK3, sequence (Q9H4B4 whole entry, species assumed): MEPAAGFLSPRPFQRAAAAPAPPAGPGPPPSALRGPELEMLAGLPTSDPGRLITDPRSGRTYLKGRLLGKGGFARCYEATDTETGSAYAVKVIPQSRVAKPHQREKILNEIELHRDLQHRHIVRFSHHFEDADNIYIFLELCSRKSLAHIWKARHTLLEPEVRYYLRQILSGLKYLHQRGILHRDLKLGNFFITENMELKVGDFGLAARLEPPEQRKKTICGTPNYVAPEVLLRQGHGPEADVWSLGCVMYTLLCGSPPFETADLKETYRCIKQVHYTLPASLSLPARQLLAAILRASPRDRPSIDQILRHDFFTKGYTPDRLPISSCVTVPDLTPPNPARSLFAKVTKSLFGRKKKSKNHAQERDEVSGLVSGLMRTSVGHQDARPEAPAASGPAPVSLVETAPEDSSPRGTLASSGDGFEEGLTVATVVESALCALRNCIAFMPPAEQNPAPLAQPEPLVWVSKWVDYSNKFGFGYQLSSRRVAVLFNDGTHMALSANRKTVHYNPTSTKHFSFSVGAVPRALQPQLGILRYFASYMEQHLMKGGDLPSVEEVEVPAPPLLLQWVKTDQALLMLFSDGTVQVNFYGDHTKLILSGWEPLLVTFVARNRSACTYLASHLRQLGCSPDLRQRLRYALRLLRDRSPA

Plx1 = Plx1 (Xenopus laevis, UniProt P70032); details: cited from earlier work
Plx1, sequence (P70032 whole entry): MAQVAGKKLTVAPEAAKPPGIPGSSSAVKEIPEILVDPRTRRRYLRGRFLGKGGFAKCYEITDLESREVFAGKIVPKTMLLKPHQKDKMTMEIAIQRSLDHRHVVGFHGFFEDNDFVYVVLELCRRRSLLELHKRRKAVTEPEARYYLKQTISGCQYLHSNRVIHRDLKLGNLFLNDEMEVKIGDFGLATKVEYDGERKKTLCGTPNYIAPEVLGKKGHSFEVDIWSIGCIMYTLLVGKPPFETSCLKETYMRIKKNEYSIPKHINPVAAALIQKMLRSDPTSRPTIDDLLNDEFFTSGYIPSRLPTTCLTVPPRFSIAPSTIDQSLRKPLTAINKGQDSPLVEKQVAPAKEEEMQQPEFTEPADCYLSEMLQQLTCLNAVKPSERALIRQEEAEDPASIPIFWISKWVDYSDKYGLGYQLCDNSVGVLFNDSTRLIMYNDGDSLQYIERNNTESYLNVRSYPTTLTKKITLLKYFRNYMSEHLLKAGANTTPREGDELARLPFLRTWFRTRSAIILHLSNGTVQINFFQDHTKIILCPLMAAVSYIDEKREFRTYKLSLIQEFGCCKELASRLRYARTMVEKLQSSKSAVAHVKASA

BTK [17] = biological target: BTK (Rattus norvegicus, UniProt Q5S255); details: read-out: in vivo IC50; rats; cited from earlier work
BTK (Rattus norvegicus, UniProt Q5S255), sequence (Q5S255 1-660): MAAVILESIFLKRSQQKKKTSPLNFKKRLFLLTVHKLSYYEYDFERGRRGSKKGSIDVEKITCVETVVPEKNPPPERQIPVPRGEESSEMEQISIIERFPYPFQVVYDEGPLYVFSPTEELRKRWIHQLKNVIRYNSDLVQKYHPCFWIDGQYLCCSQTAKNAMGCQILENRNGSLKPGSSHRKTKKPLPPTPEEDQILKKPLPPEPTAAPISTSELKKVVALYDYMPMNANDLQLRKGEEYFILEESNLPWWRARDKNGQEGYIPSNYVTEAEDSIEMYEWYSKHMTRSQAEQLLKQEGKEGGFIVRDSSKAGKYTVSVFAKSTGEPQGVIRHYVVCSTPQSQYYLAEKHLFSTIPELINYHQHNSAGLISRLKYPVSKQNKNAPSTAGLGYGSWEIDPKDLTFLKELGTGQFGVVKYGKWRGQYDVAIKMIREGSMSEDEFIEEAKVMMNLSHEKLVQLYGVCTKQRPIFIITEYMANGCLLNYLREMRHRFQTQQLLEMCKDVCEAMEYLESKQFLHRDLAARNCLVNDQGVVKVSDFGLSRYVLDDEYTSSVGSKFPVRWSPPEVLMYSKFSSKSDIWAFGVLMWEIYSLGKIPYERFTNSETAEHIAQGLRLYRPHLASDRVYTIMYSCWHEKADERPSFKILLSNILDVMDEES

C=CC(=O)N1CCC[C@@H](n2nc(-c3ccc(Oc4ccccc4)cc3)c3c(N)ncnc32)C1 (racemic) [PCI-32765]
activity on EGFR, Yes, ErbB2, and JAK3 [1]: lower activity | inhibition of Bmx, CSK, FGR, BRK, and HCK [2]: moderate inhibition

C=CC(=O)Nc1cc(-n2c(=O)ccc3cnc4ccc(-c5ccc(NS(C)(=O)=O)cc5)cc4c32)ccc1C [BMX-IN-1]
pIC50 [3]: 8.10

C=CC(=O)N1CCC[C@@H](n2nc(-c3ccc(Oc4ccccc4)cc3)c3c(N)ncnc32)C1 [ibrutinib]
phosphorylation of BTK and AKT [4]: reduced | phosphorylation of mTOR, PLCγ2, ERK and P38 ([4]; combination compared to each monotherapy alone): mild effect | invasive abilities (HBL-1 cells [5]): 85.0 % of control | apoptosis as measured by annexin V staining (HBL-1 cells [6]; first-listed of two ibrutinib doses (FIG. 3a)): 15.9±6.0% | apoptosis as measured by annexin V staining (HBL-1 cells [6]; second-listed of two ibrutinib doses (FIG. 3a)): 19.0±6.7% | migration abilities (HBL-1 cells [7]): 70.2 % of control | tumour weight [8]: 1141.80 ± 235.57 mg | reduction of tumor volume [8]: weak activity | overall response rate (ORR) (relapsed DLBCL patients; patients with ABC-DLBCL (14/38)): 37% | overall response rate (ORR) (relapsed DLBCL patients; patients with GCB-DLBCL (1/20)): 5%

NC(=O)[C@H]1CCN(c2ncnc(N)c2F)C[C@@H]1N1CCC[C@@H](Nc2cc(Cl)cc(C(F)(F)F)c2)C1=O [SNS-062]
pKd [9]: 8.66 | pKd (BTK [10]): 9.52

Cn1cc(C2=C(c3cn(C4CCN(Cc5ccccn5)CC4)c4ccccc34)C(=O)NC2=O)c2ccccc21 [enzastaurin]
phosphorylation of glycogen synthase kinase 3β (GSK3β) ([4]; low doses, 60 min and 120 min): clearly reduced | p-BTK, p-ERK and p-AKT expression ([4]; short-term and low-dose treatment): increasing | survival of DGM1-positive over DGM1-negative patients (DLBCL patients [11]): significantly improved survival | p-BTK level [12]: significant upregulation | patients experiencing FFP 20˜50 months (DLBCL patients [13]; 4/55 patients): 7% | patients with prolonged freedom from progression (FFP≥4 cycles) (DLBCL patients [13]; 8/55 patients): 15% | invasive abilities (HBL-1 cells [5]): 97.0 % of control | pIC50 [14]: 4.80 to 5.17 | apoptosis as measured by annexin V staining (HBL-1 cells [6]; enzastaurin alone (concentration in FIG. 3a)): 25.5±5.4% | cleavage of PARP and caspase-3 [15]: increase the cleavage of PARP and caspase-3 slightly | migration abilities (HBL-1 cells [7]): 79.0 % of control | pIC50 (SU-DHL-6): 5.23 | tumour weight [8]: 1151.62 ± 163.79 mg | reduction of tumor volume [8]: weak activity | pIC50 (SU-DHL-5): 5.44 | downregulated genes contained in the combination treatment group (HBL-1 cells [16]): 365 genes | share of downregulated transcripts contained in the combination treatment group (HBL-1 cells [16]): Approximately 91% | transcripts significantly down (HBL-1 cells [16]; 2 micromolar enzastaurin and/or 0.02 micromolar ibrutinib, p<0.05): 339 transcripts | disease-free survival (DFS) (high-risk DLBCL patients): did not significantly improve

C/C(O)=C(\C#N)C(=O)Nc1cc(Br)ccc1Br [LFM-A13]
pIC50 (PLK3): 4.21 | pIC50 (Plx1): 5.00

Cc1c(NC(=O)c2cc3c(s2)CCCC3)cccc1-c1cn(C)c(=O)c(Nc2ccc([C@@H]3C(=O)N(C)CCN3C)cc2)n1 [GDC-0834]
pIC50 (BTK [17]): 5.25

From patent US20220193062A1 (DENOVO BIOPHARMA LLC, priority 2018, published 2022)
